This is an account of results in patent US20240083875A1, “DIHYDROISOQUINOLINYL DERIVATIVES” (UCB BIOPHARMA SRL, priority 2020, published 2024).

In one test the target is T1, dopamine D1 receptor (Homo sapiens, UniProt P21728).
T1 construct: host or cells: LMtk (Ltk-) mouse fibroblast cells
Description: cAMP HTRF potentiation assay (PAM, in the presence of EC20 dopamine). The format is cell-based. The settings on record: for Erel (%): maximal % potentiation relative to dopamine maximal response (100%), EC20 dopamine, LMtk cells expressing D1 receptor; for EC50: potentiation of cAMP levels with EC20 dopamine (1.1 nM), LMtk mouse fibroblast cells expressing D1 receptor. As to the method:
The potentiation assay measures the ability of compounds to increase the levels of cAMP produced by a low-threshold concentration of dopamine. The concentration of dopamine used ([EC20]) is designed to produce 20% stimulation compared to the maximal response (100%) seen with increasing the concentration of dopamine. To measure this potentiation increasing concentrations of the compound with the [EC20] of dopamine are incubated and the potentiation is measured as increases in cAMP production and concentration of compound which produces 50% of the potentiation of the cAMP levels is measured.
Cells were cultured at 37° C. in a humidified atmosphere of 5% CO2. Cells were grown in DMEM-F12+GlutaMAX™-I medium (GIBCO®, Invitrogen, Merelbeke, Belgium) containing 10% fetal bovine serum (BioWhittaker®, Lonza, Verviers, Belgium), 400 μg/mL Geneticin (GIBCO®), 100 IU/mL Penicillin and 100 IU/mL Streptomycin (Pen-Strep solution, BioWhittaker®).
The measurement of changes in intracellular cyclic adenosinemonophopshpate (cAMP) was determined using the HTRF cAMP dynamic assay kit from CisBio (Codolet, France). Using homogenous time-resolved fluoresence technology, the assay is based on competition between native cAMP produced by cells and cAMP labelled with the dye d2. The tracer binding is determined by an anti-cAMP antibody labeled with cryptate. The effects of the compound alone (agonism) was determined by performing the assay in the absence of dopamine, whilst the effect of the compound as a positive allosteric modulator (PAM) was determined in the presence of an EC20 concentration of dopamine. Cells (20,000 per well) are incubated in 384 plates for 1 hour at room temperature in a final volume of 20 μLHBSS (Lonza, with calcium, magnesium and HEPES buffer 20 mM, pH 7.4) containing: isobutyl methylxanthine (Sigma, 0.1 mM final), varying concentrations of test compound (typically 10^−9.5M to […]) in the presence and absence of dopamine (1.1 nM final). The reaction is then terminated and the cells lysed by adding the d2 detection reagent in lysis buffer (10 microL) and the cryptate reagent in lysis buffer (10 microl) according to manufacturer's instructions. This is then incubated for a further 60 min at room temperature and changes in HTRF fluorescent emission ratio determined according to manufacturer's instructions using an Envision plate reader (Perkin Elmer, Zaventem, Belgium) with laser excitation. All incubations were performed in duplicate and results were compared to a concentration-effect curve to dopamine. (10^−11 M to 10^−6 M).
Data was analyzed using Excel and PRISM (GraphPad Software) to obtain pEC50 and Erel using the 4-parameter logistic equation (DeLean et al, 1978) where Erel is the fitted maximal response of the test compound minus basal expressed as a percentage relative to that obtained with dopamine which was defined as 100%.
The pEC50 of a compound is the −log10 of the concentration of the compound which produces 50% of the potentiation of the cAMP levels.
The Erel is the relative efficacy, defined as the maximal % potentiation produced by the compound compared to the maximal response produced by increasing concentrations of dopamine (Erel of 1=dopamine maximum response), has been measured.

Test [1] deals with T2, human GABAA receptor α1, β2 and γ2 subunits (Homo sapiens, UniProt P14867+P18507+P47870).
T2 construct: expressed in transfected cells
Kind of test: Automated patch clamp studies on the GABAA receptor (IonFlux HT). The test is classed as cell-based. Particulars: 10 μM compound; 15 μM GABA as agonist; CHO-K1 cells expressing human GABAA α1β2γ2. On the procedure: CHO-K1 cells stably expressing human GABAA receptor α1, β2 and γ2 subunits were used. The cells were harvested using trypsin and maintained in serum-free medium at room temperature. The cells were washed and re-suspended in extracellular solution before testing.
Experiments on human GABAA (α1β2γ2) channels were conducted using an automated patch clamp assay (IonFlux™ HT). Compounds were tested at 3 concentrations (0.1, 1, and 10 μM) in 3 to 4 cells. The external solution for recording GABAA currents was composed of sodium chloride 137 mM, potassium chloride 4 mM, calcium chloride 1.8 mM, magnesium chloride 1 mM, HEPES 10 mM, and glucose 10 mM. Both external and internal solutions were titrated with NaOH or KOH to obtain a pH of 7.35 or 7.3, respectively. The internal pipette solution contained potassium fluoride 70 mM, potassium chloride 60 mM, sodium chloride 70 mM, HEPES 5 mM, EGTA 5 mM, and Magnesium ATP 4 mM. The final concentration of vehicle used to dilute compounds was 0.33% DMSO in each well. Bicuculline (0.032 to 100 μM) was used as positive control inhibitor. GABA (15 μM) was used as agonist. All recordings were obtained from a holding potential of −60 mV.
The compound addition sequence was the following: one addition of the EC80 concentration of GABA was added to establish baseline response. Each concentration of compound was applied for 30 seconds followed by the addition of 15 μM GABA in the presence of the compound for 2 seconds. The process was repeated with the next ascending concentration of compound. Peak inward currents in response to the GABA additions in the presence of a single concentration of compound were measured. All compound data have been normalized to the baseline peak current induced by addition of 15 μM GABA for 2 seconds.
(The patch-clamp technique gives a direct electrical read-out from membranes.)

T1 sequence (P21728 whole entry): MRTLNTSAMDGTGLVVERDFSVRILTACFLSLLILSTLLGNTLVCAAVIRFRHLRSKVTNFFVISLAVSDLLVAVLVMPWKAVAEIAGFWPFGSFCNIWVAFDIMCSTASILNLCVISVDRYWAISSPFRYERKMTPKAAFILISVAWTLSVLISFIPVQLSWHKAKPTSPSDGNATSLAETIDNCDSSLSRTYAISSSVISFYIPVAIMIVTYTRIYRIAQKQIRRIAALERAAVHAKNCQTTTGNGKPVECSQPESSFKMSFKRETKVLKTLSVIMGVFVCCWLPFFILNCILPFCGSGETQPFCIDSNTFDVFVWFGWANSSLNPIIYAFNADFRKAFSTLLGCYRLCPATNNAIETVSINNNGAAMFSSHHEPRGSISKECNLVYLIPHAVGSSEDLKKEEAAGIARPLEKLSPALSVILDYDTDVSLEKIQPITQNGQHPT
T2 sequence (P14867 28-456): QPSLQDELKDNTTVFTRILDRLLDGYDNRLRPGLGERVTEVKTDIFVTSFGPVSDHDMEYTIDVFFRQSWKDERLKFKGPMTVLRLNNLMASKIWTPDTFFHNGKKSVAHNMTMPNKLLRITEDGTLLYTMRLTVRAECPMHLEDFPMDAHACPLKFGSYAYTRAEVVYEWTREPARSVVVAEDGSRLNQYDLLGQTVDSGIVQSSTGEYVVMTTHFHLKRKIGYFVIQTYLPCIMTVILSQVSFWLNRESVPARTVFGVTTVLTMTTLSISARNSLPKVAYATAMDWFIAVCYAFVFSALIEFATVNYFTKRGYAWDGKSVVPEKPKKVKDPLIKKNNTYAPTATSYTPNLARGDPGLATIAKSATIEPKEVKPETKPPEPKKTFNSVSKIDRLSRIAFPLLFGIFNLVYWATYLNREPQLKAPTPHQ
T2 sequence (P47870 25-512 limits assumed): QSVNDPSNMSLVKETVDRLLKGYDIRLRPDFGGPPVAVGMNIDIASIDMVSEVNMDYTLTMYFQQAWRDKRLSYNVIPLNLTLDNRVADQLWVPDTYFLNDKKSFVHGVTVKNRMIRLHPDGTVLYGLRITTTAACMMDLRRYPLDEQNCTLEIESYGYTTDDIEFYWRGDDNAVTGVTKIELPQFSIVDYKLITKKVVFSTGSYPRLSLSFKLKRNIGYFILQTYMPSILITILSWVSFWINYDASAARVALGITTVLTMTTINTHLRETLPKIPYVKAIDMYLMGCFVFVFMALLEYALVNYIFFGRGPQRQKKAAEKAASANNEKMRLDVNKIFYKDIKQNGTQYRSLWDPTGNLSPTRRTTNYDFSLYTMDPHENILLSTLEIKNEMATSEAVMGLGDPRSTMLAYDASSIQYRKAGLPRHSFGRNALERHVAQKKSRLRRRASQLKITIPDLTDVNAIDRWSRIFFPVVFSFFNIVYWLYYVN
T2 sequence (P18507 40-475): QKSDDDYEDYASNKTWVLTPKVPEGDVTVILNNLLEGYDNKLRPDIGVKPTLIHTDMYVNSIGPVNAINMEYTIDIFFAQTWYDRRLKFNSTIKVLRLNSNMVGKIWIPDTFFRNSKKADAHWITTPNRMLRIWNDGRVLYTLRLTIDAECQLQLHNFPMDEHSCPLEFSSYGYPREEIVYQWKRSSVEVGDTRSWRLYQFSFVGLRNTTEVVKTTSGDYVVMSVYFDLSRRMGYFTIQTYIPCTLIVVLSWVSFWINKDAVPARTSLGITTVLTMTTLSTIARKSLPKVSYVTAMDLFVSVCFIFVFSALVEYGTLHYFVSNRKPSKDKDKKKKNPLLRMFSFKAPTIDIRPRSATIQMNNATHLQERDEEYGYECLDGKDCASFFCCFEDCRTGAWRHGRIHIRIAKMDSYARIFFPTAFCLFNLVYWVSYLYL

With `C[C@H]1c2cccc(-c3cn[nH]c3)c2C[C@H](CO)N1C(=O)Cc1c(Cl)ccc2c1c(Cl)nn2C` [Example 2, 2-(3,5-dichloro-1-methyl-indazol-4-yl)-1-[(1S,3R)-3-(hydroxymethyl)-1-methyl-5-(1H-pyrazol-4-yl)-3,4-dihydro-1H-isoquinolin-2-yl]ethanone], at dopamine D1 receptor, the “Erel (%)” value is 71% and the EC50 (in general, the midpoint of the concentration-response curve) is 6.31 nM. For the same compound, testing at 10 µM in test [1] gave an inhibition of 0%.

Turning to `C[C@H]1c2cccc(-c3cnn(C)c3)c2C[C@H](CO)N1C(=O)Cc1c(Cl)ccc2[nH]nc(Cl)c12` [Example 4, 2-(3,5-dichloro-1H-indazol-4-yl)-1-[(1S,3R)-3-(hydroxymethyl)-1-methyl-5-(1-methylpyrazol-4-yl)-3,4-dihydro-1H-isoquinolin-2-yl]ethanone], at dopamine D1 receptor, the “Erel (%)” value was 63% and the EC50 was 7.94 nM. Moreover, at 10 µM the inhibition in test [1] was 10.1%.

`C[C@H]1c2cccc(-c3cnn(C)c3)c2C[C@H](CO)N1C(=O)Cc1c(Cl)ccc2c1c(Cl)nn2C` [Example 1, 2-(3,5-dichloro-1-methyl-indazol-4-yl)-1-[(1S,3R)-3-(hydroxymethyl)-1-methyl-5-(1-methylpyrazol-4-yl)-3,4-dihydro-1H-isoquinolin-2-yl]ethanone]: at dopamine D1 receptor, the “Erel (%)” value is 74% and the EC50 is 12.6 nM. In addition, 10 µM produced 2.7% inhibition in test [1].

Take `C[C@H]1c2cccc(-c3cn[nH]c3)c2C[C@H](CO)N1C(=O)Cc1c(Cl)ccc2[nH]nc(Cl)c12` [Example 3, 2-(3,5-dichloro-1H-indazol-4-yl)-1-[(1S,3R)-3-(hydroxymethyl)-1-methyl-5-(1H-pyrazol-4-yl)-3,4-dihydro-1H-isoquinolin-2-yl]ethanone]: on dopamine D1 receptor, the “Erel (%)” value is reported as 61% and the EC50 is 6.31 nM. Moreover, at 10 µM the inhibition in test [1] was 7.8%.
